Laboratory results as given in patent US8642259B2, “Method for identifying substances capable of modulating the activity of a target molecule” (Sanofi-Aventis Deutschland GmbH, priority 2002, dated 2014).

How the values were obtained:
human GPCR EDG1 = human GPCR EDG1 (Homo sapiens, UniProt P21453); test: Growth readout (FUS1-HIS3, turbidity at 630 nm), yeast strain YLJ21 expressing EDG1; format: cell-based; settings: 2 mM 3-AT; 23 h at 30° C.; FIG. 3B left-hand graph
Procedure: (§1) The human GPCRs cloned into vector p426GPD are transformed into the appropriate yeast strain and incubated on SC selection plates without uracil and with 2% glucose as carbon source (SC/Gluc-Ura) at 30° C. for 3 days. The single cell colonies thus obtained are then utilized in order to inoculate 2 ml overnight cultures in SC/Gluc-Ura. The next day, the cells are diluted 1:100 in SC/Gluc-Ura-His pH 6.8. In the case of yeast strains using the FUS1 promoter for reporter gene expression, 2-10 mM 3-aminotriazole (3-AT, Sigma) are additionally added to said medium. In each case 90 μl of the diluted cell suspension are pipetted into a well of a 96-well microtiter plate, which already contains 10 μl of the ligand to be studied. The plates are incubated with or without shaking at 30° C. for 5-24 h. […] All measurements are averages from triplicate determinations. […] The transformed yeasts were then cultivated in 2 ml of SC/Gluc-Ura at 30° C. overnight. The next day, the cultures were diluted 1:100 in SC/Gluc-Ura-His pH 6.8 medium without (FIG. 3A) or with 2 mM 3-AT (FIG. 3B). […] The turbidity resulting from growth of the yeast cells was measured at 630 nm in the photometer (FIGS. 3A and B, in each case left-hand graph).

human GPCR EDG5 = target: T1, human GPCR EDG5 (Homo sapiens, UniProt O95136); test: Growth readout (FUS1-HIS3, turbidity at 630 nm), yeast strain YLJ21 expressing EDG5; format: cell-based; settings: 2 mM 3-AT; 23 h at 30° C.; FIG. 3B left-hand graph
T1 construct: expressed in transfected cells; host or cells: Saccharomyces cerevisiae strain YLJ21 (endogenous Gpa1), episomal vector p426GPD
Procedure: as §1

[1] = tested on: human M1 muscarinic receptor, somatostatin receptor 2 and EDG5
Procedure: The human GPCRs cloned into vector p426GPD are transformed into the appropriate yeast strain and incubated on SC selection plates without uracil and with 2% glucose as carbon source (SC/Gluc-Ura) at 30° C. for 3 days. The single cell colonies thus obtained are then utilized in order to inoculate 2 ml overnight cultures in SC/Gluc-Ura. The next day, the cells are diluted 1:100 in SC/Gluc-Ura-His pH 6.8. In the case of yeast strains using the FUS1 promoter for reporter gene expression, 2-10 mM 3-aminotriazole (3-AT, Sigma) are additionally added to said medium. In each case 90 μl of the diluted cell suspension are pipetted into a well of a 96-well microtiter plate, which already contains 10 μl of the ligand to be studied. The plates are incubated with or without shaking at 30° C. for 5-24 h. This is followed by adding to each well 50 μl of assay mix. The assay mix consists of 150 μg/ml digitonin (Sigma), 300 μg/ml chlorophenol red β-D-galactopyranoside (CPRG, Roche), 300 mM sodium phosphate buffer pH 6.7. After incubation with or without shaking at 30° C. for 2 h, β-galactosidase activity is measured as absorption at 574 nm in a spectrophotometer (Spectramax Plus, Molecular Devices). The data are analyzed and dose-response curves are drawn using the Graphpad Prism 3.0 computer program. All measurements are averages from triplicate determinations. […]

Sequence of human GPCR EDG1 (P21453 whole entry): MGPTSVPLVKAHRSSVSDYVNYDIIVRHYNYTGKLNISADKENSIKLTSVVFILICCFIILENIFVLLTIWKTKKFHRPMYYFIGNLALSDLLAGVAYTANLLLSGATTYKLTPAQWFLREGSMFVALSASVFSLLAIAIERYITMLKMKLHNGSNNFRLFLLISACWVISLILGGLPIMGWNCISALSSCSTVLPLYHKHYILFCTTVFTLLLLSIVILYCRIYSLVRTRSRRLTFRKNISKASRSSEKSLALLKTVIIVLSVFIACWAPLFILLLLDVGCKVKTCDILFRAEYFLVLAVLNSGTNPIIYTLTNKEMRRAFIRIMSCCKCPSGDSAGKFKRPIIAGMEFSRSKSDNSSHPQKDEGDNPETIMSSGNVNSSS
T1 sequence (O95136 whole entry): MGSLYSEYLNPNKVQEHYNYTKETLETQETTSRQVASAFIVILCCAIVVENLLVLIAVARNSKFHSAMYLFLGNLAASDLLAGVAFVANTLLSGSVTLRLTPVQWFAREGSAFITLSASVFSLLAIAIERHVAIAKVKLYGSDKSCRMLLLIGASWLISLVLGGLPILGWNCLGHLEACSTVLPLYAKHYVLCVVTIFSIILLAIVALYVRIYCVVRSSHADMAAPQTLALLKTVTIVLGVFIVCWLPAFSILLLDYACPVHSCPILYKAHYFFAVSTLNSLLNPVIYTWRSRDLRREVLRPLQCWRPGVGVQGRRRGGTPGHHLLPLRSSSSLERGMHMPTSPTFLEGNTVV

Compound: CCCCCCCCCCCCC/C=C/[C@@H](O)[C@@H](N)COP(=O)(O)O [sphingosine 1-phosphate]
- dose dependence of the measured signal (turbidity at 630 nm) (human GPCR EDG1): level of the measured signal is dependent on the amount of sphingosine 1-phosphate
- dose dependence of the measured signal (turbidity at 630 nm) (human GPCR EDG5): level of the measured signal is dependent on the amount of sphingosine 1-phosphate
- detection of the agonist in the receptor mixture [1]: can also be detected in the mixture

Compound: somatostatin-14
- detection of the agonist in the receptor mixture [1]: can also be detected in the mixture
